Patent publication US9969687B2, “Compounds useful as CCR9 modulators” (Norgine B.V., priority 2013, dated 2018)
pKi: −log10 of the molar value.

Columns and labels:
CCR9 [1] = molecular target: T1, CCR9 (Homo sapiens (Human), UniProt P51686); test: FLIPR calcium flux assay using hCCR9 over expressed cells (Chem1-hCCR9), TECK stimulation; type: cell-based; settings: Chem1-hCCR9 overexpressing cells
Experimental: Biological Activity: FLIPR Assay Using hCCR9 Over Expressed Cells
A calcium flux assay was used to determine the ability of the compounds to interfere with the binding between CCR9 and its chemokine ligand (TECK) in Chem1-hCCR9 overexpressing cells. hCCR9 overexpressing cells were seeded (25,000 cells/well) into black Poly-D-Lysine coated clear bottom 96-well plates (BD Biosciences, Cat #356640) and incubated overnight at 37° C./5% CO2 in a humidified incubator. Media was aspirated and cells washed twice with 100 μL assay buffer (1×HBSS, 20 mM HEPES) containing 2.5 mM Probenecid. A 0.3× Fluo-4 NW calcium dye was prepared in assay buffer containing 5 mM Probenecid and stored in the dark. Each well was loaded with 100 μL of 0.3× Fluo-4 NW calcium dye and incubated at 37° C./5% CO2 for 60 minutes and then at room temperature for 30 minutes. A half-log serially diluted concentration response curve was prepared at a 3× final assay concentration for each compound (10 μM-0.1 nM final assay concentration) and 50 μL of the compound then transferred to the cells (150 μL final volume) for 60 minutes prior to stimulation (30 minutes at 37° C./5% CO2 and 30 minutes at room temperature). TECK was diluted to 4× its EC80 in assay buffer (containing 0.1% [w/v] bovine serum albumin [BSA]) and 50 μL dispensed through the fluorometric imaging plate reader (FLIPR) instrument to stimulate the cells (200 μL final volume). The increase in intracellular calcium levels was measured with the FLIPR instrument. The potency of the compound as a CCR9 antagonist was calculated as an IC50 using GraphPad Prism software (variable slope four parameter). The Ki of the compound was determined from the IC50 values using the following equation. IC50/1+(Agonist (TECK) conc. used in assay/EC50 of agonist (TECK) generated on day of experiment) Ki calculation: […]

CCR9 [2] = molecular target: T1, CCR9; test: FLIPR calcium flux assay using MOLT4 cells, TECK stimulation; type: cell-based; settings: MOLT4 cells (human T-cell line)
In short: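 MOLT4 cells in HBSS/20 mM HEPES with probenecid, Fluo-4 NW loaded, preincubated with compound (10 μM-0.1 nM final, half-log) for 60 min before TECK stimulation. Calcium rise read on FLIPR; IC50 from four-parameter fit, converted to Ki using TECK concentration and same-day TECK EC50.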

T1 sequence (P51686 whole entry): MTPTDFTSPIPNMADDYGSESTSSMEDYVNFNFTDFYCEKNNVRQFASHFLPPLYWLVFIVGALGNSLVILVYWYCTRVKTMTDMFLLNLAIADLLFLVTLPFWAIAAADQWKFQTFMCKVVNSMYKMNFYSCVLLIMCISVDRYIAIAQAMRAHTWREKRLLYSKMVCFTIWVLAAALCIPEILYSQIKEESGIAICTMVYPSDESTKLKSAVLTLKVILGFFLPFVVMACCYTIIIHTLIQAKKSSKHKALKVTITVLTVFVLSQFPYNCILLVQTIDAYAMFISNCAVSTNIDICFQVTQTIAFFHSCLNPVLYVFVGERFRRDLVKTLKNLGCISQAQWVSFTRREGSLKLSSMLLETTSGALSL

SMILES | pKi (CCR9 [1]) | pKi (CCR9 [2])
CC(C)(C)c1ccc(S(=O)(=O)Nc2ccc(Cl)c3c2C(=O)N(Cc2ccc[n+]([O-])c2)C3=O)cc1 [Compound 65, 3-((4-(4-(tert-butyl)phenylsulfonamido)-7-chloro-1,3-dioxoisoindolin-2-yl)methyl)pyridine 1-oxide] | 7.13 | 7.89
CC(C)(C)c1ccc(S(=O)(=O)Nc2ccc(Cl)c3c2C(=O)N(c2ccsc2C(=O)O)C3=O)cc1 [Compound 288] | 7.64 | 8.52
Cn1cncc1N1C(=O)c2c(Cl)ccc(NS(=O)(=O)c3ccc(C(C)(C)C)cc3)c2C1=O [Compound 192] | 7.92 | 8.40
CC(C)(C)c1ccc(S(=O)(=O)Nc2ccc(Cl)c3c2C(=O)N(Cc2ccc[nH]c2=O)C3=O)cc1 [Compound 284] | 7.92 | 8.15
Cc1cc(N2C(=O)c3c(Cl)ccc(NS(=O)(=O)c4ccc(C(C)(C)C)cc4)c3C2=O)cn(C)c1=O [Compound 285] | 7.11 | 7.80
COc1c(N2C(=O)c3c(Cl)ccc(NS(=O)(=O)c4ccc(C(C)(C)C)cc4)c3C2=O)ccc[n+]1[O-] [Compound 194] | 8.22 | 8.40
COc1ccc(N2C(=O)c3c(Cl)ccc(NS(=O)(=O)c4ccc(C(C)(C)C)cc4)c3C2=O)c(OC)n1 [Compound 230] | 8.22 | 8.10
COc1cncc(N2C(=O)c3c(Cl)ccc(NS(=O)(=O)c4ccc(C(C)(C)C)cc4)c3C2=O)c1C [Compound 242] | 7.25 | 7.74
Cc1cnc(C#N)c(N2C(=O)c3c(Cl)ccc(NS(=O)(=O)c4ccc(C(C)(C)C)cc4)c3C2=O)c1 [Compound 256] | 7.74 | 7.74
Cn1cnc(N2C(=O)c3c(Cl)ccc(NS(=O)(=O)c4ccc(C(C)(C)C)cc4)c3C2=O)c1 [Compound 153, 4-(tert-butyl)-N-(7-chloro-2-(1-methyl-1H-imidazol-4-yl)-1,3-dioxoisoindolin-4-yl)benzenesulfonamide] | 7.37 | 8.15
Cc1cnc(N2C(=O)c3c(Cl)ccc(NS(=O)(=O)c4ccc(C(C)(C)C)cc4)c3C2=O)cn1 [Compound 275] | 7.27 | 7.49
COc1cccnc1N1C(=O)c2c(Cl)ccc(NS(=O)(=O)c3ccc(C(C)(C)C)cc3)c2C1=O [Compound 202] | 7.31 | 7.66
CC(C)(C)c1ccc(S(=O)(=O)Nc2ccc(Cl)c3c2C(=O)N(c2ncccn2)C3=O)cc1 [Compound 250] | 7.25 | 7.64
Cn1cc(N2C(=O)c3c(Cl)ccc(NS(=O)(=O)c4ccc(C(C)(C)C)cc4)c3C2=O)ccc1=O [Compound 282] | 7.64 | 8.05
N#Cc1cccc(CN2C(=O)c3c(Cl)ccc(NS(=O)(=O)c4ccc(F)c(C(F)(F)F)c4)c3C2=O)c1 [Compound 133] | 6.80 | 6.66
COc1cncc(CN2C(=O)c3c(Cl)ccc(NS(=O)(=O)c4ccc(C(C)(C)C)cc4)c3C2=O)c1 [Compound 212] | 7.22 | 7.23
Cc1ccc(NS(=O)(=O)c2ccc(C(C)(C)C)cc2)c2c1C(=O)N(Cc1cccnc1)C2=O [Compound 160] | 6.11 | 6.34
COC(=O)c1sccc1N1C(=O)c2c(Cl)ccc(NS(=O)(=O)c3ccc(C(C)(C)C)cc3)c2C1=O [Compound 155, methyl 3-(4-((4-(tert-butyl)phenyl)sulfonamido)-7-chloro-1,3-dioxoisoindolin-2-yl)thiophene-2-carboxylate] | 6.87 | 7.36
Cc1cccc(N2C(=O)c3c(Cl)ccc(NS(=O)(=O)c4ccc(C(C)(C)C)cc4)c3C2=O)[n+]1[O-] [Compound 233] | 7.68 | 7.72
COC(=O)c1cc(N2C(=O)c3c(Cl)ccc(NS(=O)(=O)c4ccc(C(C)(C)C)cc4)c3C2=O)nn1C [Compound 292] | 7.80 | 7.96
Cc1cc(C)c(CN2C(=O)c3c(Cl)ccc(NS(=O)(=O)c4ccc(C(C)(C)C)cc4)c3C2=O)c(=O)[nH]1 [Compound 283] | 7.70 | 7.82
CC(C)(C)c1ccc(S(=O)(=O)Nc2ccc(Cl)c3c2C(=O)N(c2ccc[n+]([O-])c2)C3=O)cc1 [Compound 44, 3-(4-(4-(tert-butyl)phenylsulfonamido)-7-chloro-1,3-dioxoisoindolin-2-yl)pyridine 1-oxide] | 6.75 | 7.80

SMILES | pKi (CCR9 [1]) | pKi (CCR9 [2])
Cc1cnccc1N1C(=O)c2c(Cl)ccc(NS(=O)(=O)c3ccc(C(C)(C)C)cc3)c2C1=O [Compound 244] | 8.52 | 8.22
COc1nccc(C)c1N1C(=O)c2c(Cl)ccc(NS(=O)(=O)c3ccc(C(C)(C)C)cc3)c2C1=O [Compound 237] | 8.05 | 7.55
COc1cccc(N2C(=O)c3c(Cl)ccc(NS(=O)(=O)c4ccc(C(C)(C)C)cc4)c3C2=O)c1 [Compound 138] | 6.86 | 7.08
COc1ccc[n+]([O-])c1N1C(=O)c2c(Cl)ccc(NS(=O)(=O)c3ccc(C(C)(C)C)cc3)c2C1=O [Compound 211] | 7.21 | 7.48
Cc1ccc(N2C(=O)c3c(Cl)ccc(NS(=O)(=O)c4ccc(C(C)(C)C)cc4)c3C2=O)[n+]([O-])c1 [Compound 229] | 7.20 | 7.34
Cc1ccc(N2C(=O)c3c(Cl)ccc(NS(=O)(=O)c4ccc(C(C)(C)C)cc4)c3C2=O)nn1 [Compound 236] | 7.49 | 7.29
CC(C)(C)c1ccc(S(=O)(=O)Nc2ccc(C#N)c3c2C(=O)N(Cc2ccccn2)C3=O)cc1 [Compound 279] | 7.77 | 7.74
COc1cc(C#N)cc(N2C(=O)c3c(Cl)ccc(NS(=O)(=O)c4ccc(C(C)(C)C)cc4)c3C2=O)c1 [Compound 190] | 7.09 | 7.62
CC(C)(C)c1ccc(S(=O)(=O)Nc2ccc(Cl)c3c2C(=O)N(Cc2c(F)ccc[n+]2[O-])C3=O)cc1 [Compound 241] | 8.15 | 8.30
CCOC(=O)c1ncccc1N1C(=O)c2c(Cl)ccc(NS(=O)(=O)c3ccc(C(C)(C)C)cc3)c2C1=O [Compound 286, ethyl 3-(4-((4-(tert-butyl)phenyl)sulfonamido)-7-chloro-1,3-dioxoisoindolin-2-yl)picolinate] | 7.85 | 8.00
Cc1cnc(N2C(=O)c3c(Cl)ccc(NS(=O)(=O)c4ccc(C(C)(C)C)cc4)c3C2=O)s1 [Compound 217] | 7.41 | 7.46
O=C1c2c(Cl)ccc(NS(=O)(=O)c3ccc(C(F)(F)F)cc3)c2C(=O)N1c1cn[nH]c1 [Compound 149] | 6.40 | 7.28
COc1ncc(C)cc1N1C(=O)c2c(Cl)ccc(NS(=O)(=O)c3ccc(C(C)(C)C)cc3)c2C1=O [Compound 261] | 7.96 | 7.80
COc1ncccc1CN1C(=O)c2c(Cl)ccc(NS(=O)(=O)c3ccc(C(C)(C)C)cc3)c2C1=O [Compound 247] | 7.29 | 7.11
Cn1ccc(CN2C(=O)c3c(Cl)ccc(NS(=O)(=O)c4ccc(C(C)(C)C)cc4)c3C2=O)n1 [Compound 193] | 7.68 | 7.80
O=C1c2c(Cl)ccc(NS(=O)(=O)c3ccc(C(F)(F)F)cc3)c2C(=O)N1c1cccnc1 [Compound 47] | 6.51 | 7.47
Cc1cc[n+]([O-])cc1CN1C(=O)c2c(Cl)ccc(NS(=O)(=O)c3ccc(C(C)(C)C)cc3)c2C1=O [Compound 213] | 7.64 | 7.92
Cc1ccncc1N1C(=O)c2c(Cl)ccc(NS(=O)(=O)c3ccc(C(C)(C)C)cc3)c2C1=O [Compound 185] | 7.64 | 8.15
COc1ccc(N2C(=O)c3c(Cl)ccc(NS(=O)(=O)c4ccc(C(C)(C)C)cc4)c3C2=O)nc1C [Compound 260] | 7.66 | 7.80
Cc1ncccc1N1C(=O)c2c(Cl)ccc(NS(=O)(=O)c3ccc(C(C)(C)C)cc3)c2C1=O [Compound 175, 4-(tert-butyl)-N-(7-chloro-2-(2-methylpyridin-3-yl)-1,3-dioxoisoindolin-4-yl)benzenesulfonamide] | 7.92 | 8.52
Cc1ccc(N2C(=O)c3c(Cl)ccc(NS(=O)(=O)c4ccc(C(C)(C)C)cc4)c3C2=O)cn1 [Compound 182] | 7.24 | 7.72
CC(C)(C)c1ccc(S(=O)(=O)Nc2ccc(Cl)c3c2C(=O)N(c2cnccn2)C3=O)cc1 [Compound 184] | 7.62 | 7.80
